Data set [1] concerns the target Carbonic anhydrase 1 (Homo sapiens, UniProt P00915). Nature of the data set: Inhibition of human cytosolic CA 1 preincubated for 15 mins by phenol red dye-based stopped-flow CO2 hydration assay.
In data set [2] the target is Carbonic anhydrase 9 (Homo sapiens, UniProt Q16790). Briefly: Inhibition of membrane bound human CA 9 preincubated for 15 mins by phenol red dye-based stopped-flow CO2 hydration assay.
Data set [3] addresses Carbonic anhydrase 2 (Homo sapiens, UniProt P00918). Nature of the data set: Inhibition of human cytosolic CA 2 preincubated for 15 mins by phenol red dye-based stopped-flow CO2 hydration assay.
In data set [4] the target is T1, Carbonic anhydrase 12 (Homo sapiens, UniProt O43570). Nature of the data set: Inhibition of membrane bound human CA 12 preincubated for 15 mins by phenol red dye-based stopped-flow CO2 hydration assay.
Data set [5] has as its system SK-MEL-2. Briefly: Cytotoxicity against human SK-MEL-2 cells assessed as reduction in cell viability at 300 uM incubated for 48 hrs under normoxic condition by MTT assay relative to control. The class given is functional, cell-based. (Formazan colour is commonly taken as a measure of viable cells.)
Data set [6] relates to ARPE-19. Briefly: Cytotoxicity against human ARPE19 cells assessed as reduction in cell viability incubated for 48 hrs under normoxic condition by MTT assay relative to control. The class given is cell-based. The following applies: arpe-19, 48 h.
Data set [7] concerns PANC-1. Nature of the data set: Cytotoxicity against human PANC1 cells assessed as reduction in cell viability incubated for 48 hrs under hypoxia condition by MTT assay relative to human ARPE19 cells. The class given is functional.
Data set [8] concerns ARPE-19. Briefly: Cytotoxicity against human ARPE19 cells assessed as reduction in cell viability incubated for 48 hrs under hypoxia condition by MTT assay relative to control. The class given is cell-based. Conditions: arpe-19, 48 h.
Data set [9] concerns SK-MEL-2. Briefly: Cytotoxicity against human SK-MEL-2 cells assessed as reduction in cell viability incubated for 48 hrs under normoxic condition by MTT assay relative to control. The class given is functional, cell-based.
Data set [10] relates to PANC-1. Briefly: Cytotoxicity against human PANC1 cells assessed as reduction in cell viability incubated for 48 hrs under normoxic condition by MTT assay relative to control. The class given is functional, cell-based.
For data set [11], the system named is PANC-1. Nature of the data set: Cytotoxicity against human PANC1 cells assessed as reduction in cell viability incubated for 48 hrs under hypoxia condition by MTT assay. The class given is functional, cell-based.
The test system of data set [12] is PANC-1. Briefly: Cytotoxicity against human PANC1 cells assessed as reduction in cell viability incubated for 48 hrs under hypoxia condition by MTT assay relative to control. The class given is functional, cell-based.
For data set [13], the system named is SK-MEL-2. Briefly: Cytotoxicity against human SK-MEL-2 cells assessed as reduction in cell viability incubated for 48 hrs under hypoxia condition by MTT assay relative to control. The class given is functional, cell-based.
Data set [14] concerns the target T1, Carbonic anhydrase 12.
Description: Inhibition of human CA 12 catalytic domain

pKi: −log10 of the molar value. Active and inactive are the calls of the source. The calls are words filed in the database; no cut-off is given here.

Sequence of Carbonic anhydrase 1 (P00915 whole entry): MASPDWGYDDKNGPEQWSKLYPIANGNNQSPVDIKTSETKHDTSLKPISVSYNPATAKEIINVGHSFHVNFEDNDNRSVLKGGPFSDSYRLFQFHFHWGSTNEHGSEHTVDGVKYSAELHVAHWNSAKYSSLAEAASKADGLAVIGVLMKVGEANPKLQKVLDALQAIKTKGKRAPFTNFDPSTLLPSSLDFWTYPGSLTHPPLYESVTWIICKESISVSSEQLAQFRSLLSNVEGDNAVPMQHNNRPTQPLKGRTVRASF
T1 sequence (O43570 whole entry): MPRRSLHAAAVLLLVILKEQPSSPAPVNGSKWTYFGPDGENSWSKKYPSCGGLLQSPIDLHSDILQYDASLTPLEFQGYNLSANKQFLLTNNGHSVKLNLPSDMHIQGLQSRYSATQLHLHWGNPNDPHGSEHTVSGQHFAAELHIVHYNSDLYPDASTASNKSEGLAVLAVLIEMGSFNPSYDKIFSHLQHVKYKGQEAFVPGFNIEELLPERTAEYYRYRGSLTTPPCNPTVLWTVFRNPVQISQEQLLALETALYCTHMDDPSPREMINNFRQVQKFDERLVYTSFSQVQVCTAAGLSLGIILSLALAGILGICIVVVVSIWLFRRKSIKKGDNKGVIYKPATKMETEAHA

With `NS(=O)(=O)c1ccc(-n2ncc(NCCCN3CCOCC3)c(Cl)c2=O)cc1`, the negative-log Ki (pKi) in data set [1] was 6.32; in data set [2] it was 8.55; in [3], 9.17; in data set [4] it was 8.00.
For `CCN1CCN(c2cnn(-c3ccc(S(N)(=O)=O)cc3)c(=O)c2)CC1`, the outcome in data set [5] was Active. The negative-log Ki (pKi) in data set [1] is 6.51; in [2], 7.38; in [3], 8.37; in data set [4] it was 7.60.
As to `NS(=O)(=O)c1ccc(N2N=C(c3ccccc3)CCC2=O)cc1`, the negative logarithm of the Ki (pKi) in data set [1] was 6.73; in data set [2], 8.32; in data set [3], 9.59; in [4], 7.65.
Turning to `NS(=O)(=O)c1ccc(-n2ncc(N3CCCCCC3)c(Cl)c2=O)cc1`, the pKi in data set [1] is 7.01; in data set [2], 9.31; in data set [3] it was 10.22; in data set [4], 8.08. The Activity result is given as “Dose-dependent effect” in data set [6], above 30% in data set [7] and “Dose-dependent effect” in data set [8].
With `NS(=O)(=O)c1ccc(-n2nc(-c3ccc4c(c3)OCO4)ccc2=O)cc1`, the negative-log Ki (pKi) was 7.00 in [1], 7.55 in [2], 8.85 in [3] and 7.20 in data set [4].
Consider `CCN1CCN(c2cnn(-c3ccc(S(N)(=O)=O)cc3)c(=O)c2Cl)CC1`, for which the outcome in data set [9], in data set [10], in data set [11], in [12] and in [13] was inactive. In addition, the pKi is 6.31 in [1], 9.15 in data set [2], 9.54 in [3] and 8.14 in data set [4]. In addition, the values for the Activity result in [6], in [7] and in [8] were “Non-Toxic”, above 30% and “Non-Toxic”, respectively.
For `NS(=O)(=O)c1ccc(-n2ncccc2=O)cc1`, the outcome in data set [9], in data set [10], in data set [11], in [12] and in data set [13] was inactive. Further, the pKi in data set [1] was 6.49; in data set [2], 8.05; in data set [3], 8.09; in data set [4], 7.09. The Activity entry in [6] is listed as “Non-Toxic”; in data set [7], above 30%; in [8], “Non-Toxic”.
With `NS(=O)(=O)c1ccc(S(=O)(=O)Nc2cccc3c(Cl)c[nH]c23)cc1`, in [14], the negative-log Ki (pKi) is 8.52.
Turning to `NS(=O)(=O)c1ccc(N2N=C(c3ccc(Cl)c(Cl)c3)CCC2=O)cc1`, the pKi was 5.22 in [1], 8.22 in data set [2], 7.13 in data set [3] and 7.17 in data set [4].
Consider `COc1ccc2cnn(-c3ccc(S(N)(=O)=O)cc3)c(=O)c2c1OC`, for which the pKi in data set [1] was 7.04; in data set [2] it was 8.05; in [3] it was 8.46; in data set [4], 7.18.
On to `NS(=O)(=O)c1ccc(-n2ncc(Cl)c(Cl)c2=O)cc1`, for which the pKi in data set [1] is 6.32; in data set [2] it was 8.06; in data set [3], 8.64; in [4], 8.00. For the same compound, the Activity in [7] was above 30%.
In the case of `NS(=O)(=O)c1ccc(-n2ncc(N3CCOCC3)c(Cl)c2=O)cc1`, the Activity result was “Dose-dependent effect” in data set [9], “Non-Toxic” in [6], above 30% in [7] and “Dose-dependent effect” in [13]. For the same compound, the pKi in data set [1] is 7.05; in [2], 9.24; in data set [3], 10.15; in data set [4], 7.44.
As to `Cc1cc(-c2cccnc2)nn(-c2ccc(S(N)(=O)=O)cc2)c1=O`, the negative-log Ki (pKi) in data set [1] is 7.00; in data set [2] it was 8.64; in [3], 8.54; in data set [4], 8.06.
As to `NS(=O)(=O)c1ccc(-n2ncc(N3CCN(c4ccccn4)CC3)c(Cl)c2=O)cc1`, the negative logarithm of the Ki (pKi) was 6.17 in [1], 7.05 in data set [2], 7.33 in [3] and 6.98 in data set [4]. The Activity in data set [7] is above 30%.
On to `COc1ccc(C2=NN(c3ccc(S(N)(=O)=O)cc3)C(=O)CC2)cc1`, for which the negative logarithm of the Ki (pKi) in [1] was 7.03; in data set [2] it was 8.62; in data set [3] it was 10.10; in [4] it was 8.00. Also, the Activity result is “Dose-dependent effect” in data set [6], above 30% in [7] and “Dose-dependent effect” in [8].
For `CC1=NN(c2ccc(S(N)(=O)=O)cc2)C(=O)CC1`, the pKi was 7.05 in [1], 7.48 in [2], 9.17 in [3] and 7.51 in data set [4]. Also, the Activity in data set [7] is reported as above 30%.
On to `NS(=O)(=O)c1ccc(-n2ncc(NCc3ccccc3)c(Cl)c2=O)cc1`, for which the negative-log Ki (pKi) was 7.02 in [1], 9.17 in [2], 10.05 in data set [3] and 8.03 in [4].
In the case of `NS(=O)(=O)c1ccc(-n2ncc(N3CCCCCC3)cc2=O)cc1`, the negative logarithm of the Ki (pKi) in [1] is 7.05; in data set [2] it was 9.25; in data set [3], 10.10; in data set [4] it was 8.20.
The corresponding values for `NS(=O)(=O)c1ccc(-n2ncc3ccccc3c2=O)cc1` are 7.14, 9.49, 9.64 and 7.30.
The corresponding values for `NS(=O)(=O)c1ccc(-n2ncc(N3CCOCC3)cc2=O)cc1` are 6.53, 8.68, 9.26 and 8.01.
On to `NS(=O)(=O)c1ccc(-n2nc(-c3ccncc3)ccc2=O)cc1`, for which the pKi in [1] is 6.64; in [2] it was 7.29; in data set [3] it was 8.32; in data set [4] it was 8.06.
Turning to `NS(=O)(=O)c1ccc(-n2nc(-c3ccccc3O)ccc2=O)cc1`, the pKi in data set [1] was 7.08; in data set [2], 9.34; in [3], 9.21; in data set [4], 8.03.
With `Cc1nn(-c2ccc(S(N)(=O)=O)cc2)c(=O)c2ccccc12`, the negative-log Ki (pKi) in [1] was 7.05; in data set [2] it was 9.62; in data set [3], 10.52; in [4], 8.05.
With `NS(=O)(=O)c1ccc(-n2ncc(N3CCc4ccccc4C3)c(Cl)c2=O)cc1`, the negative-log Ki (pKi) in data set [1] was 6.13; in data set [2] it was 7.05; in data set [3], 7.22; in [4], 7.07.

Usually pKi stands for the negative decadic logarithm of the Ki, by convention in mol/L.

Source of the values: ChEMBL document CHEMBL4390661, “Pyridazinone-substituted benzenesulfonamides display potent inhibition of membrane-bound human carbonic anhydrase IX and promising antiproliferative activity against cancer cell lines” (Eur J Med Chem, 2019).
